Target: VEGFr2 (Rattus norvegicus, UniProt O08775)
Assay: PET imaging of ^18F-ZD-G2 versus ^18FDG in MCT rat model of PAH
Type: in vivo
Conditions: early stage of PAH (MCT-10 days and MCT-2 weeks); PET at 60 minutes after injection
Procedure: Images of ^18F-ZD-G2 probe and ^18FDG were compared. Rats exposed to monocrotaline were used to develop pulmonary arterial hypertension rat model (MCT), while healthier rats were used as a control group.
Images of ^18F-ZD-G2 probe and ^18FDG were compared.
A PET imaging study was further performed with ^18F-ZD-G2 using MCT rat model as previous described. Healthy rats were used as control. Clinically used ^18FDG PET imaging was also performed on both groups of […] following the same imaging protocol for comparison.

Chain of VEGFr2 (O08775 20-1343): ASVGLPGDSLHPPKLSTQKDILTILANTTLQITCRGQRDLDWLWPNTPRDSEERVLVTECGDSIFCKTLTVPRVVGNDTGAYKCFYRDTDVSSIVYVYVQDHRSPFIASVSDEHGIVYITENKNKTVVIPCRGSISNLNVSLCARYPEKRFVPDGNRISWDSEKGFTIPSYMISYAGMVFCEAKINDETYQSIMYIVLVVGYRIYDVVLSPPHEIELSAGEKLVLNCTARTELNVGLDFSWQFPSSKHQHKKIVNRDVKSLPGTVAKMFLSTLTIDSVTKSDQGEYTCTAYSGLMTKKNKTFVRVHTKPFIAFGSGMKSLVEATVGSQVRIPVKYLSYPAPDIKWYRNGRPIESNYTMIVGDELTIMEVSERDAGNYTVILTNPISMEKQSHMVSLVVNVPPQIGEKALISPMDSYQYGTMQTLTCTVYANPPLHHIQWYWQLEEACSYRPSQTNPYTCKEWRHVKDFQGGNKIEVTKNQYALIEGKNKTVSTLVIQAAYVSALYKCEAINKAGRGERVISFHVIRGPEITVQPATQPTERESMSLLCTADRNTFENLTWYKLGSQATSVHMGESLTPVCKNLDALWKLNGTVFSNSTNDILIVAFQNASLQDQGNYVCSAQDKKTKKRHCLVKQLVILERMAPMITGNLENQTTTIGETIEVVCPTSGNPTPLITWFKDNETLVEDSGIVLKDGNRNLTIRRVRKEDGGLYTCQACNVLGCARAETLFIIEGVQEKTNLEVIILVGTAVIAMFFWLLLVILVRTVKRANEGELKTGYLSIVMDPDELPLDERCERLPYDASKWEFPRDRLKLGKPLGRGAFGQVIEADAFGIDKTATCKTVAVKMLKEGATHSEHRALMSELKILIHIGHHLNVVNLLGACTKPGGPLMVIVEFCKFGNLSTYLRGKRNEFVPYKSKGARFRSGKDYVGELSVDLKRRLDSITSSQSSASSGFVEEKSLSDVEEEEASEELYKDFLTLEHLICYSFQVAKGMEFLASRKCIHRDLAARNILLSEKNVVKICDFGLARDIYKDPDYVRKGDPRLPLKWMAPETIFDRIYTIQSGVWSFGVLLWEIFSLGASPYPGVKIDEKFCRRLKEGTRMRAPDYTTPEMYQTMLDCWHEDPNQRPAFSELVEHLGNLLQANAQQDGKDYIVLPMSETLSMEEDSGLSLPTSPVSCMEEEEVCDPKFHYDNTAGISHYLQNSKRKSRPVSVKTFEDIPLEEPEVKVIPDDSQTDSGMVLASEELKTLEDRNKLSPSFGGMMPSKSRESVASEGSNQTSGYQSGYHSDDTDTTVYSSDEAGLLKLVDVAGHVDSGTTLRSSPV

- Lung uptake, MCT versus control: no obvious difference
Compound: OC[C@H]1OC(O)[C@H]([18F])[C@@H](O)[C@@H]1O (stereo partly shown) [^18FDG]

Source: patent US20260355361A1, “METHODS FOR DIAGNOSIS AND TREATMENT OF PULMONARY HYPERTENSION” (THE METHODIST HOSPITAL, priority 2022, published 2026)
